Earlier results in patent publication US20240366636A1, “ORAL CANNABINOID PHARMACEUTICAL COMPOSITIONS AND METHODS OF TREATING INFLAMMATORY GASTROINTESTINAL DISORDERS” (Curio IP, LLC, priority 2022, published 2024).

Tests used:
[1] = test system: DNBS-induced intestinal inflammation; details: murine
[2] = biological target: cannabinoid CB2 receptor (Homo sapiens, UniProt P34972)
[3] = humans

Chain of cannabinoid CB2 receptor (P34972 whole entry): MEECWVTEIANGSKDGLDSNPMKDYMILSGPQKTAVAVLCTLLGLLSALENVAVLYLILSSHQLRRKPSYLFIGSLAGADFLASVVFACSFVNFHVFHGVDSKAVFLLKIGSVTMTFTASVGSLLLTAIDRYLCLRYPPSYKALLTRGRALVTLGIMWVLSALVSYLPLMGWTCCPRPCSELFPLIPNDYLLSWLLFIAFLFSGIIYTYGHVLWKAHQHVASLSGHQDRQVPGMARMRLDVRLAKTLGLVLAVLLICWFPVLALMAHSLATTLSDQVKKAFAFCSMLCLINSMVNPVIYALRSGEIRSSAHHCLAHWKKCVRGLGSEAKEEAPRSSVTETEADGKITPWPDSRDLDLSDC

Question: Which “DNBS-induced intestinal inflammation and permeability” value [1] does the source give for Cannabigerol [CBG] here?
Answer: attenuated

Question: And the “Interleuken-1β (IL-1β) levels” value ([1]; DNBS)?
Answer: reduced

Question: And the “myeloperoxidase (MPO) activity” value ([1]; DNBS)?
Answer: reduced

Question: What does the source list for `C=C(C)[C@@H]1CCC(C)=C[C@H]1c1c(O)cc(CCCCC)cc1O` [CBD, cannabidiol]?
Answer: affinity for CB2 receptor [2]: low affinity; oral bioavailability [3]: approximately 6%

Question: With `CCCCCc1cc(O)c2c(c1)OC(C)(C)[C@@H]1CCC(C)=C[C@@H]21` [THC, (−)-(6aR,10aR)-6,6,9-trimethyl-3-pentyl-6a,7,8,10a-tetrahydro-6H-benzo[c]chromen-1-ol] as the compound, how does the peak plasma levels (following smoking of the equivalent of 10-15 mg over 5-7 minutes) read?
Answer: around 100 μg/L

Question: And the half-life (plasma, when cannabis is smoked)?
Answer: 2 h

Question: And the Bioavailability (smoking route)?
Answer: 2-56%
